Experimental data published in ChEMBL document CHEMBL4477234, “Potent Suppressive Effects of 1-Piperidinylimidazole Based Novel P2X7 Receptor Antagonists on Cancer Cell Migration and Invasion” (J Med Chem, 2016).

How the values were obtained:
P2X purinoceptor 7 [1] = biological target: T1, P2X purinoceptor 7 (Homo sapiens, UniProt Q99572); experiment: Antagonist activity at human P2X7 receptor expressed in HEK293 cells assessed as inhibition of BzATP-induced EtBr uptake measured after 2 hrs by fluorescence analysis; assay type: cell-based
T1 sequence (Q99572 whole entry): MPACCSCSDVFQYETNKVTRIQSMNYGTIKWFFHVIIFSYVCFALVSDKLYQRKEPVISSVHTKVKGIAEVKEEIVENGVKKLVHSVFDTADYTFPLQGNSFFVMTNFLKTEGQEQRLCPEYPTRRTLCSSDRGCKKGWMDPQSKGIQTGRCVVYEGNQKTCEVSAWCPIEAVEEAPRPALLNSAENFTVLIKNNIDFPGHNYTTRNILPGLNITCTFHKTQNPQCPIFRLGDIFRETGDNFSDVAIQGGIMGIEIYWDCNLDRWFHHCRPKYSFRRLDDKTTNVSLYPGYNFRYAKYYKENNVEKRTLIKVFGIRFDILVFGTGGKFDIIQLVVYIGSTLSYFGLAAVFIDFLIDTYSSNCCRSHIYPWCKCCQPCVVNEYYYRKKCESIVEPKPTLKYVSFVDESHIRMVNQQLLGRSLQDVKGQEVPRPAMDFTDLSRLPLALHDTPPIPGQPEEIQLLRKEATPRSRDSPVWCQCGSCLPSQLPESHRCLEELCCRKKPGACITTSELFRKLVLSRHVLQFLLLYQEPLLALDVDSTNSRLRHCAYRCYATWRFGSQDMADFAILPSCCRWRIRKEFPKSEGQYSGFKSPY

P2X purinoceptor 7 [2] = biological target: T1, P2X purinoceptor 7; experiment: Antagonist activity at human P2X7 receptor in LPS/IFN-gamma-differentiated human THP-1 cells assessed as suppression of BzATP-stimulated IL-1beta release per-incubated for 30 mins before BzATP addition and measured after 30 mins by ELISA; assay type: cell-based

Row | SMILES | IC50 (P2X purinoceptor 7 [1]) | IC50 (P2X purinoceptor 7 [2])
1 | O=C(c1ccc(Cl)c(C(F)(F)F)c1)N1CCC(n2cncc2-c2ccc(OS(=O)(=O)c3cccc(Br)c3)cc2)CC1 | 896 nM | 
2 | O=C(c1ccc(Cl)c(C(F)(F)F)c1)N1CCC(c2nc3cc(OS(=O)(=O)c4cccc5cnccc45)ccc3[nH]2)CC1 | 31 nM | 210 nM
3 | CC(=O)Oc1ccc(-c2cncn2C2CCN(C(=O)c3ccc(Cl)c(C(F)(F)F)c3)CC2)cc1 | > 10000 nM | 
4 | CS(=O)(=O)c1ccc(C(=O)N2CCN(c3cc(=O)[nH]c(=O)n3Cc3ccc(OS(=O)(=O)c4cccc5cnccc45)cc3)CC2)cc1 | 44 nM | 50 nM
5 | CCN(CC)c1ccc(C(=O)N2CCC(n3cncc3-c3ccc(OS(=O)(=O)c4cccc5cnccc45)cc3)CC2)cc1 | 1440 nM | 
6 | O=C(c1ccc(Cl)c(C(F)(F)F)c1)N1CCC(n2cncc2-c2ccc(OS(=O)(=O)c3cccc4cnccc34)cc2)CC1 | 45 nM | 22 nM
7 | CNC(=O)c1cccc(S(=O)(=O)Oc2ccc(-c3cncn3C3CCN(C(=O)c4ccc(Cl)c(C(F)(F)F)c4)CC3)cc2)c1 | 112 nM | 1.76 nM
8 | CN(C)c1cccc(C(=O)N2CCC(n3cncc3-c3ccc(OS(=O)(=O)c4cccc5cnccc45)cc3)CC2)c1 | 155 nM | 
9 | CS(=O)(=O)c1ccc(C(=O)N2CCC(n3cncc3-c3ccc(OS(=O)(=O)c4cccc(C(=O)NC5CC5)c4)cc3)CC2)cc1 | 400 nM | 
10 | O=C(c1ccc([N+](=O)[O-])cc1)N1CCC(c2nc3cc(OS(=O)(=O)c4cccc5cnccc45)ccc3[nH]2)CC1 | 13 nM | 17 nM
11 | O=C(c1ccc(Oc2ccccc2)cc1)N1CCC(n2cncc2-c2ccc(OS(=O)(=O)c3cccc4cnccc34)cc2)CC1 | 187 nM | 
12 | CS(=O)(=O)c1ccc(C(=O)N2CCC(n3cncc3-c3ccc(OS(=O)(=O)c4cccc5cnccc45)cc3)CC2)cc1 | 25 nM | 0.32 nM
13 | COc1ccc(C(=O)N2CCC(n3cncc3-c3ccc(OS(=O)(=O)c4cccc(C(=O)NC5CC5)c4)cc3)CC2)cc1 | 244 nM | 
14 | CCN(CC)C(=O)c1cccc(S(=O)(=O)Oc2ccc(-c3cncn3C3CCN(C(=O)c4ccc(Cl)c(C(F)(F)F)c4)CC3)cc2)c1 | 202 nM | 
15 | O=C(Oc1ccc(-c2cncn2C2CCN(C(=O)c3ccc(Cl)c(C(F)(F)F)c3)CC2)cc1)c1ccccc1 | > 10000 nM | 
16 | N#Cc1ccc(C(=O)N2CCC(n3cncc3-c3ccc(OS(=O)(=O)c4cccc5cnccc45)cc3)CC2)cc1 | 269 nM | 
17 | CNC(=O)c1cccc(S(=O)(=O)Oc2ccc(-c3cncn3C3CCN(C(=O)c4ccc([N+](=O)[O-])cc4)CC3)cc2)c1 | 62 nM | 26 nM
18 | N#Cc1cccc(S(=O)(=O)Oc2ccc(-c3cncn3C3CCN(C(=O)c4ccc(Cl)c(C(F)(F)F)c4)CC3)cc2)c1 | 73 nM | 4.28 nM
19 | O=C(NC1CC1)c1cccc(S(=O)(=O)Oc2ccc(-c3cncn3C3CCN(C(=O)c4ccc([N+](=O)[O-])cc4)CC3)cc2)c1 | 152 nM | 
20 | O=C(Oc1ccc(-c2cncn2C2CCN(C(=O)c3ccc(Cl)c(C(F)(F)F)c3)CC2)cc1)c1cccc2cnccc12 | > 10000 nM | 
21 | O=C(c1ccc([N+](=O)[O-])cc1)N1CCN(c2cc(=O)[nH]c(=O)n2Cc2ccc(OS(=O)(=O)c3cccc4cnccc34)cc2)CC1 | 27 nM | 32 nM
22 | CNC(=O)c1cccc(S(=O)(=O)Oc2ccc(-c3cncn3C3CCN(C(=O)c4ccc(S(C)(=O)=O)cc4)CC3)cc2)c1 | 202 nM | 

Row | SMILES | IC50 (P2X purinoceptor 7 [1]) | IC50 (P2X purinoceptor 7 [2])
23 | O=C(c1ccc(Cl)c(C(F)(F)F)c1)N1CCC(n2cncc2-c2ccc(OS(=O)(=O)c3cccc([N+](=O)[O-])c3)cc2)CC1 | 249 nM | 
24 | COc1ccc(C(=O)N2CCC(n3cncc3-c3ccc(OS(=O)(=O)c4cccc5cnccc45)cc3)CC2)cc1OC | 259 nM | 
25 | O=C(c1ccc(Cl)c(C(F)(F)F)c1)N1CCC(n2cncc2-c2ccc(OS(=O)(=O)c3cccc4ccccc34)cc2)CC1 | 3520 nM | 
26 | O=C(c1ccc(Cl)c(C(F)(F)F)c1)N1CCN(c2cc(=O)[nH]c(=O)n2Cc2ccc(OS(=O)(=O)c3cccc4cnccc34)cc2)CC1 | 40 nM | 18 nM
27 | O=C(c1ccc(Cl)c(C(F)(F)F)c1)N1CCC(n2cncc2-c2ccc(OS(=O)(=O)c3cccs3)cc2)CC1 | 238 nM | 
28 | O=C(NC1CC1)c1cccc(S(=O)(=O)Oc2ccc(-c3cncn3C3CCN(C(=O)c4ccc(Cl)c(C(F)(F)F)c4)CC3)cc2)c1 | 88 nM | 58 nM
29 | O=C(Oc1ccc(-c2cncn2C2CCN(C(=O)c3ccc(Cl)c(C(F)(F)F)c3)CC2)cc1)c1cccs1 | > 10000 nM | 
30 | O=C(c1ccc(Cl)c(C(F)(F)F)c1)N1CCC(n2ccc3cc(OS(=O)(=O)c4cccc5cnccc45)ccc32)CC1 | 430 nM | 552 nM
31 | O=C(c1ccc(Cl)c(C(F)(F)F)c1)N1CCC(n2cncc2-c2ccc(OS(=O)(=O)c3ccccc3)cc2)CC1 | 702 nM | 
32 | CC(C)(O)c1ccc(C(=O)N2CCC(n3cncc3-c3ccc(OS(=O)(=O)c4cccc5cnccc45)cc3)CC2)cc1 | 109 nM | 4.7 nM
33 | CS(=O)(=O)Oc1ccc(-c2cncn2C2CCN(C(=O)c3ccc(Cl)c(C(F)(F)F)c3)CC2)cc1 | 1570 nM | 
34 | CNC(=O)c1cccc(S(=O)(=O)Oc2ccc(-c3cncn3C3CCN(C(=O)c4ccc(OC)cc4)CC3)cc2)c1 | 159 nM | 
35 | COc1ccc(C(=O)N2CCC(n3cncc3-c3ccc(OS(=O)(=O)c4cccc(C#N)c4)cc3)CC2)cc1 | 312 nM | 
36 | Nc1cccc(S(=O)(=O)Oc2ccc(-c3cncn3C3CCN(C(=O)c4ccc(Cl)c(C(F)(F)F)c4)CC3)cc2)c1 | 565 nM | 
37 | COc1ccc(C(=O)N2CCC(n3cncc3-c3ccc(OS(=O)(=O)c4cccc5cnccc45)cc3)CC2)cc1 | 77 nM | 64 nM
38 | CN(C)c1ccc(C(=O)N2CCC(c3nc4cc(OS(=O)(=O)c5cccc6cnccc56)ccc4[nH]3)CC2)cc1 | 41 nM | 121 nM
39 | CN(C)c1ccc(C(=O)N2CCC(n3cncc3-c3ccc(OS(=O)(=O)c4cccc(C#N)c4)cc3)CC2)cc1 | 32 nM | 10 nM
40 | CNC(=O)c1cccc(S(=O)(=O)Oc2ccc(-c3cncn3C3CCN(C(=O)c4ccc(N(C)C)cc4)CC3)cc2)c1 | 25 nM | 22 nM
41 | N#Cc1cccc(S(=O)(=O)Oc2ccc(-c3cncn3C3CCN(C(=O)c4ccc([N+](=O)[O-])cc4)CC3)cc2)c1 | 45 nM | 13 nM
42 | O=C(c1ccc([N+](=O)[O-])cc1)N1CCC(n2cncc2-c2ccc(OS(=O)(=O)c3cccc4cnccc34)cc2)CC1 | 1.49 nM | 8.29 nM
43 | CC(C)c1ccc(C(=O)N2CCC(n3cncc3-c3ccc(OS(=O)(=O)c4cccc5cnccc45)cc3)CC2)cc1 | 55 nM | 37 nM
44 | CS(=O)(=O)c1ccc(C(=O)N2CCC(n3cncc3-c3ccc(OS(=O)(=O)c4cccc(C#N)c4)cc3)CC2)cc1 | 143 nM | 
